The text below walks through data of patent US9676754B2, “Triazolone compounds and uses thereof” (Inception 2, Inc., priority 2012, dated 2017).

Read-outs that look alike come from different tables or passages of the source.

Assay [1] addresses T1, Estrogen Receptor β (Homo sapiens, UniProt Q92731).
T1 construct: host or cells: engineered reporter cells of the kit
The assay can be described thus: Target selectivity counterscreen, Estrogen Receptor β reporter assay. It counts as cell-based. To be noted: receptor agonist at ~EC80. How it is done: (§1) Target Selectivity Assays
(§2) To determine species selectivity, a Mouse PPARα Reporter Assay System was used (Indigo Biosciences, Cat. #M00111). Activity of test compounds to antagonize or agonize other isoforms of human PPAR, for example β/δ and γ, were assessed using the corresponding kits from Indigo Biosciences (Cat. #IB00121 and #IB00101, respectively). In addition to PPAR activity, compounds were also screened for activity against other nuclear hormone receptors including Estrogen Receptor β, Glucocorticoid Receptor and Thyroid Receptor β using commercially available kits (Indigo Biosciences, Cat. #IB00411, IB00201 and IB01101, respectively). Each assay system from Indigo Biosciences uses technology analogous to the human PPARα kit, with the variance being that the cells used for each assay were engineered to over-express the receptor of interest. In addition, the appropriate receptor agonist (included with each kit) was used at ˜EC80 for assays in which antagonist potency was being assessed.

The target of assay [2] is T2, Human PPARα (Homo sapiens, UniProt Q07869).
T2 construct: host or cells: proprietary non-human mammalian cells
T2 sequence (Q07869 1-468): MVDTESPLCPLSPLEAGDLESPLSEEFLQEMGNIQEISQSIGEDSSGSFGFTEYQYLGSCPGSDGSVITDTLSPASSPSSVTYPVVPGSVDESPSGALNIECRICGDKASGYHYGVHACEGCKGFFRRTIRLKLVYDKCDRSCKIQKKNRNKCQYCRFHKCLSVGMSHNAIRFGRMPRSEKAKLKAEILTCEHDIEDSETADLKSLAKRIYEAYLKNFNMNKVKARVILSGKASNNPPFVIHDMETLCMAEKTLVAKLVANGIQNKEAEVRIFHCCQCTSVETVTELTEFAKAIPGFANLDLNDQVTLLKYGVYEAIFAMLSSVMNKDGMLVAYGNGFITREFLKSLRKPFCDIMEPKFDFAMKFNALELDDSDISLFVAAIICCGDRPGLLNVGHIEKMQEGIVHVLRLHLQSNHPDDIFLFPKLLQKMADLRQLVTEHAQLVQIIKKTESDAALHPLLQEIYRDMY
The assay can be described thus: Human PPARα Reporter Assay (luciferase). Format: cell-based. How it is done: Human PPARα Reporter Assay
The screening of test compounds for agonist or antagonist activities against human PPARα receptors was performed using a commercial kit, Human PPARα Reporter Assay System (Indigo Biosciences, Cat. #IB00111).
This nuclear receptor assay system utilizes proprietary non-human mammalian cells engineered to provide constitutive, high-level expression of Human PPARα. Because these cells incorporate a PPARα-responsive luciferase reporter gene, quantifying expressed luciferase activity provides a sensitive surrogate measure of PPARα activity in the treated cells. The primary application of this reporter assay system is in the screening of test samples to quantify any functional activity, either agonist or antagonist, that they may exert against human PPARα. […] Briefly, the reporter cells are dispensed into wells of the assay plate and then immediately dosed with test compounds. Following an overnight incubation, the treatment media are discarded and Luciferase Detection Reagent (LDR) is added. The intensity of light emission from the ensuing luciferase reaction provides a sensitive measure that is directly proportional to the relative level of PPARα activation in the reporter cells.

The target of assay [3] is T3, Glucocorticoid Receptor (Homo sapiens, UniProt P04150).
T3 construct: host or cells: engineered reporter cells of the kit
T3 sequence (P04150 1-777): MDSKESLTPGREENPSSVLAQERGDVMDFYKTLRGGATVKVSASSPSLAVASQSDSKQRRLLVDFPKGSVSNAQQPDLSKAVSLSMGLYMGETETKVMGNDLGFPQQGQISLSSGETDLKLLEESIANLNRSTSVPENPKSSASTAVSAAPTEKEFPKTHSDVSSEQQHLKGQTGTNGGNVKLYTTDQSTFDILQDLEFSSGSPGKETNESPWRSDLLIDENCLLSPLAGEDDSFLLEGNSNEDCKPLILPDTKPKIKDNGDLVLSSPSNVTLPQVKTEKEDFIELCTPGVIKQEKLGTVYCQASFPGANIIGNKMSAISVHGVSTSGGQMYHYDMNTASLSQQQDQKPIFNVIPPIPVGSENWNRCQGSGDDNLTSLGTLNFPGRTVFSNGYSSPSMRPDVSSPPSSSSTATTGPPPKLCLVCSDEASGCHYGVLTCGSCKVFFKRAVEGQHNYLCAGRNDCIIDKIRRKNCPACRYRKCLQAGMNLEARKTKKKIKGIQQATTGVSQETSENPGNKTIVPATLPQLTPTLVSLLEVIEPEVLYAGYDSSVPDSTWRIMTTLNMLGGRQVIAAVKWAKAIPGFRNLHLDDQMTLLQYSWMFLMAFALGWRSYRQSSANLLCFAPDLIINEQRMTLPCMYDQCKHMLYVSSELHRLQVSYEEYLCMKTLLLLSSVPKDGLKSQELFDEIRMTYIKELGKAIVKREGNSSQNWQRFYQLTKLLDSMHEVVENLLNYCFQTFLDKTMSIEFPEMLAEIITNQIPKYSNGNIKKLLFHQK
The assay can be described thus: Target selectivity counterscreen, Glucocorticoid Receptor reporter assay. Format: cell-based. To be noted: receptor agonist at ~EC80. As for the experimental part:
as §1, §2

In assay [4] the test system is B16F10 melanoma cells. The assay can be described thus: In vivo cancer model: B16F10 model of pulmonary metastasis. The arrangement: species or system C57BL/6 mice. Conditions: oral doses 0.3, 3 and 30 mg/kg daily, day 21, FIG. 1. As for the experimental part: In Vivo Cancer Model: B16F10 Model of Pulmonary Metastasis
B16F10 cells were cultured in standard growth media, harvested when approximately 50% confluent and injected into C57BL/6 mice via the tail vein (50,000 cells per mouse in 200 μL). Mice were treated daily with test compound. On day 21, mice were euthanized. Lungs were harvested and placed into Fekete's solution overnight to facilitate visualization of the tumors. Black nodules were enumerated.
Statistics were performed by ANOVA with Dunnett's Multiple Comparison Test post-hoc to determine statistical differences from vehicle treatment group. * denotes P<0.05, while *** denotes P<0.001.

Assay [5] has as its target T4, Thyroid Receptor β (Homo sapiens, UniProt P10828).
T4 construct: host or cells: engineered reporter cells of the kit
T4 sequence (P10828 1-461): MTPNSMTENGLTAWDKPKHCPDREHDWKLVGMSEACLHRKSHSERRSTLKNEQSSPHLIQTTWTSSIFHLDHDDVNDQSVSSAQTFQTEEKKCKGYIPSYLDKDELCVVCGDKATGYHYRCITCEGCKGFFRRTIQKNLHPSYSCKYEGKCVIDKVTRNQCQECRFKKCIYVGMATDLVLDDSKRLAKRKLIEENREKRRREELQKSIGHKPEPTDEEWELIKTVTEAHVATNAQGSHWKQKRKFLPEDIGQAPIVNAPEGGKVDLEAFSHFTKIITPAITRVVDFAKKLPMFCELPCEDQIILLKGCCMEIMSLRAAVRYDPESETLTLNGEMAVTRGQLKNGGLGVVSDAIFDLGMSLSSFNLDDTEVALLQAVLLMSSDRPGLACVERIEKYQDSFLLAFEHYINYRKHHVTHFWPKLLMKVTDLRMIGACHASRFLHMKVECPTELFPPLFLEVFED
Put plainly: Target selectivity counterscreen, Thyroid Receptor β reporter assay. Format: cell-based. To be noted: receptor agonist at ~EC80. How it is done: as §1, §2

T1 sequence (Q92731 whole entry): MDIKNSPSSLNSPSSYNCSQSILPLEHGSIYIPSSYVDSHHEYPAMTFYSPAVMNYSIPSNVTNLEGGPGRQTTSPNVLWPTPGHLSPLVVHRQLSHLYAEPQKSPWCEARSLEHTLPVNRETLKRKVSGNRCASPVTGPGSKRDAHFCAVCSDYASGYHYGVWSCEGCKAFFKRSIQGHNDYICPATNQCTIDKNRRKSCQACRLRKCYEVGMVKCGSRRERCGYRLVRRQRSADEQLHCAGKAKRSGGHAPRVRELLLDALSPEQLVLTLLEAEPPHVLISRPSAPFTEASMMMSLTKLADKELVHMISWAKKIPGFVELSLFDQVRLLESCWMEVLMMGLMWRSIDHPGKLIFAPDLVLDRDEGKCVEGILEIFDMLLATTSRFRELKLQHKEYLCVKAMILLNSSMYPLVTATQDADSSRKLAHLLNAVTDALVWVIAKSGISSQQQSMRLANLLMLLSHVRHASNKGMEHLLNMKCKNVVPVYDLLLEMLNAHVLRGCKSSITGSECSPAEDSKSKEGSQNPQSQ

With `CCOc1ccc(-c2cccc(CCCc3nn(Cc4ccc(C(C)(C)C)cc4)c(=O)n3CC)c2)cc1CC(=O)O` [Example 6, 2-(3′-(3-(1-(4-(tert-Butyl)benzyl)-4-ethyl-5-oxo-4,5-dihydro-1H-1,2,4-triazol-3-yl)propyl)-4-ethoxy-[1,1′-biphenyl]-3-yl)acetic acid], the concentration for half-maximal inhibition (IC50) in assay [1] worked out at 19.4 µM; in assay [2] (antagonist activity, luciferase reporter cells, overnight incubation, read-out: Human PPARα Reporter Assay-Luciferase IC50), 0.058 µM; in assay [2] (counterscreen assay results table, read-out: PPAR alpha IC50), 0.058 µM; in assay [3] it was 18.2 µM; in assay [5], 30.8 µM. Besides, the “metastasis of B16F10 melanoma cells to the lung (black nodules enumerated)” value in assay [4] was “inhibition of metastasis”.
